Measurements from the NIST ThermoML archive (doi:10.1016/j.jct.2011.08.016).
± gives the expanded uncertainty stated by the source.

Assay: xn = mol fraction of the nth substance listed
Settings: Liquid, Vibrating tube method

CCCCCCCCCC [decane] + CCCCCCCC
Settings	mass density [kg/m3]
313.14 K, 1000 kPa, x2 = 0.0616	714.37 ± 0.41
313.14 K, 2000 kPa, x2 = 0.0616	715.15 ± 0.41
313.14 K, 3000 kPa, x2 = 0.0616	716 ± 0.42
313.14 K, 4000 kPa, x2 = 0.0616	716.89 ± 0.42
313.14 K, 5000 kPa, x2 = 0.0616	717.71 ± 0.43
313.14 K, 6000 kPa, x2 = 0.0616	718.51 ± 0.43
313.14 K, 7000 kPa, x2 = 0.0616	719.36 ± 0.43
313.14 K, 8000 kPa, x2 = 0.0616	720.16 ± 0.44
313.14 K, 9000 kPa, x2 = 0.0616	720.97 ± 0.44
313.14 K, 10000 kPa, x2 = 0.0616	721.75 ± 0.45
313.14 K, 10990 kPa, x2 = 0.0616	722.52 ± 0.45
313.14 K, 12000 kPa, x2 = 0.0616	723.27 ± 0.46
313.14 K, 13000 kPa, x2 = 0.0616	724.05 ± 0.46
313.14 K, 14000 kPa, x2 = 0.0616	724.81 ± 0.47
313.14 K, 15000 kPa, x2 = 0.0616	725.5 ± 0.47
313.14 K, 16000 kPa, x2 = 0.0616	726.26 ± 0.48
313.14 K, 17000 kPa, x2 = 0.0616	726.99 ± 0.48
313.14 K, 18000 kPa, x2 = 0.0616	727.69 ± 0.49
313.14 K, 19000 kPa, x2 = 0.0616	728.37 ± 0.5
313.14 K, 20000 kPa, x2 = 0.0616	729.06 ± 0.5
313.14 K, 21000 kPa, x2 = 0.0616	729.73 ± 0.51
313.14 K, 22000 kPa, x2 = 0.0616	730.38 ± 0.51
313.14 K, 23000 kPa, x2 = 0.0616	731.03 ± 0.52
313.14 K, 24000 kPa, x2 = 0.0616	731.6 ± 0.53
313.14 K, 25000 kPa, x2 = 0.0616	732.22 ± 0.53
313.17 K, 1000 kPa, x2 = 0.2801	709.26 ± 0.41
313.17 K, 1000 kPa, x2 = 0.9623	688.85 ± 0.42
313.17 K, 2000 kPa, x2 = 0.2801	710.07 ± 0.42
313.17 K, 2000 kPa, x2 = 0.9623	689.77 ± 0.42
313.17 K, 3000 kPa, x2 = 0.2801	710.9 ± 0.42
313.17 K, 3000 kPa, x2 = 0.9623	690.64 ± 0.43
313.17 K, 4000 kPa, x2 = 0.2801	711.79 ± 0.42
313.17 K, 4000 kPa, x2 = 0.9623	691.53 ± 0.43
313.17 K, 5000 kPa, x2 = 0.2801	712.65 ± 0.43
313.17 K, 5000 kPa, x2 = 0.9623	692.37 ± 0.44
313.17 K, 6000 kPa, x2 = 0.2801	713.47 ± 0.43
313.17 K, 6000 kPa, x2 = 0.9623	693.31 ± 0.44
313.17 K, 7000 kPa, x2 = 0.2801	714.32 ± 0.44
313.17 K, 7000 kPa, x2 = 0.9623	694.24 ± 0.45
313.17 K, 8000 kPa, x2 = 0.2801	715.17 ± 0.44
313.17 K, 8000 kPa, x2 = 0.9623	695.11 ± 0.45
313.17 K, 9000 kPa, x2 = 0.2801	715.99 ± 0.45
313.17 K, 9000 kPa, x2 = 0.9623	696.04 ± 0.46
313.17 K, 10000 kPa, x2 = 0.2801	716.81 ± 0.45
313.17 K, 10000 kPa, x2 = 0.9623	696.93 ± 0.47
313.17 K, 10990 kPa, x2 = 0.2801	717.63 ± 0.46
313.17 K, 10990 kPa, x2 = 0.9623	697.85 ± 0.47
313.17 K, 12000 kPa, x2 = 0.2801	718.42 ± 0.46
313.17 K, 12000 kPa, x2 = 0.9623	698.72 ± 0.48
313.17 K, 13000 kPa, x2 = 0.2801	719.2 ± 0.47
313.17 K, 13000 kPa, x2 = 0.9623	699.57 ± 0.48
313.17 K, 14000 kPa, x2 = 0.2801	719.98 ± 0.47
313.17 K, 14000 kPa, x2 = 0.9623	700.45 ± 0.49
313.17 K, 15000 kPa, x2 = 0.2801	720.74 ± 0.48
313.17 K, 15000 kPa, x2 = 0.9623	701.33 ± 0.49
313.17 K, 16000 kPa, x2 = 0.2801	721.5 ± 0.48
313.17 K, 16000 kPa, x2 = 0.9623	702.18 ± 0.5
313.17 K, 17000 kPa, x2 = 0.2801	722.23 ± 0.49
313.17 K, 17000 kPa, x2 = 0.9623	703 ± 0.51
313.17 K, 18000 kPa, x2 = 0.2801	723 ± 0.5
313.17 K, 18000 kPa, x2 = 0.9623	703.81 ± 0.51
313.17 K, 19000 kPa, x2 = 0.2801	723.67 ± 0.5
313.17 K, 19000 kPa, x2 = 0.9623	704.6 ± 0.52
313.17 K, 20000 kPa, x2 = 0.2801	724.35 ± 0.51
313.17 K, 20000 kPa, x2 = 0.9623	705.32 ± 0.53
313.17 K, 21000 kPa, x2 = 0.2801	725.02 ± 0.51
313.17 K, 21000 kPa, x2 = 0.9623	706.06 ± 0.53
313.17 K, 22000 kPa, x2 = 0.2801	725.7 ± 0.52
313.17 K, 22000 kPa, x2 = 0.9623	706.8 ± 0.54
313.17 K, 23000 kPa, x2 = 0.2801	726.3 ± 0.52
313.17 K, 23000 kPa, x2 = 0.9623	707.48 ± 0.55
313.17 K, 24000 kPa, x2 = 0.2801	726.9 ± 0.53
313.17 K, 24000 kPa, x2 = 0.9623	708.16 ± 0.55
313.17 K, 25000 kPa, x2 = 0.2801	727.55 ± 0.54
313.17 K, 25000 kPa, x2 = 0.9623	708.78 ± 0.56
313.19 K, 1000 kPa, x2 = 0.5314	702.8 ± 0.42
313.19 K, 1000 kPa, x2 = 0.7736	695.32 ± 0.42
313.19 K, 2000 kPa, x2 = 0.5314	703.69 ± 0.42
313.19 K, 2000 kPa, x2 = 0.7736	696.27 ± 0.42
313.19 K, 3000 kPa, x2 = 0.5314	704.53 ± 0.42
313.19 K, 3000 kPa, x2 = 0.7736	697.14 ± 0.43
313.19 K, 4000 kPa, x2 = 0.5314	705.35 ± 0.43
313.19 K, 4000 kPa, x2 = 0.7736	698.01 ± 0.43
313.19 K, 5000 kPa, x2 = 0.5314	706.16 ± 0.43
313.19 K, 5000 kPa, x2 = 0.7736	698.89 ± 0.44
313.19 K, 6000 kPa, x2 = 0.5314	707.05 ± 0.44
313.19 K, 6000 kPa, x2 = 0.7736	699.8 ± 0.44
313.19 K, 7000 kPa, x2 = 0.5314	707.93 ± 0.44
313.19 K, 7000 kPa, x2 = 0.7736	700.67 ± 0.44
313.19 K, 8000 kPa, x2 = 0.5314	708.77 ± 0.45
313.19 K, 8000 kPa, x2 = 0.7736	701.55 ± 0.45
313.19 K, 9000 kPa, x2 = 0.5314	709.59 ± 0.45
313.19 K, 9000 kPa, x2 = 0.7736	702.44 ± 0.46
